Results on 14 compounds are retold here after US20230278972A1, “SUBSTITUTED HALOALKYL SULFONANILIDE HERBICIDES” (FMC Corporation, priority 2020, published 2023).

Holding throughout (type): in vivo
Assay [1] has as its system goosegrass (Eleusine indica). Nature of the assay: Test A1 postemergence, goosegrass. To be noted: for Goosegrass plant response rating: 31 g ai/ha, postemergence; for Plant response rating, Goosegrass: Postemergence. The gist of the method: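 Herbicidal response was scored on plants treated either preemergence, by directed spray onto soil of a loam–sand blend after sowing, or postemergence on potted plants at the one- to two-leaf stage, 2–10 cm high. Test chemicals were carried in a non-phytotoxic solvent mix with surfactant.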

Assay [2] has as its system Pigweed, Palmer (palmer amaranth, palmer pigweed, Amaranthus palmeri). The experiment in a line: Test A1 postemergence, Pigweed, Palmer. The settings on record: for Pigweed, Palmer plant response rating: 31 g ai/ha, postemergence; for Plant response rating, Pigweed, Palmer: Postemergence. Summed up:
(§1)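 Plants grown in pots of loam/sand mix; preemergence = soil-directed spray on seeded pots, postemergence = spray at 1–2 leaves, height 2–10 cm; test chemicals formulated in non-phytotoxic solvent with surfactant.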

For assay [3], the system named is blackgrass (Alopecurus myosuroides). Nature of the assay: Test A1 preemergence, blackgrass. The gist of the method: as §1
Where [4] appears, read: 0 to 100 scale (0 no effect, 100 complete control).
Setting [5] is: 125 g ai/ha, 0 to 100 scale (0 no effect, 100 complete control), 10 days.
The mark [6] stands for this setting: 31 g ai/ha, 0 to 100 scale (0 no effect, 100 complete control).
[7] abbreviates: 125 g ai/ha, 0 to 100 scale, 0 no effect, 100 complete control.

The structures appear in SMILES notation.

With `Cc1ccc(C2=NOC3CCCC23)cc1NS(=O)(=O)C(F)(F)F` (stereo not shown) [Compound 377], the “Goosegrass plant response rating” value in assay [1] (setting [4]) is 0. For the same compound, the “Plant response rating, Goosegrass” value in assay [1] (125 g ai/ha, 0 to 100 scale) came to 0. Also, the “Pigweed, Palmer plant response rating” value in assay [2] (setting [4]) is on record as 0. Besides, the “Plant response rating, Pigweed, Palmer” value in assay [2] (125 g ai/ha, 0 to 100 scale) stood at 0.
`CCc1cc(C)c(N(COC(=O)C(C)(C)C)S(=O)(=O)C(F)(F)F)cc1C1=NOC2CCCC12` (stereo not shown) [Compound 378]: the “Goosegrass plant response rating” value in assay [1] (setting [4]) was 0. In assay [1] (125 g ai/ha, 0 to 100 scale), the “Plant response rating, Goosegrass” value came to 30. The “Pigweed, Palmer plant response rating” value in assay [2] (setting [4]) worked out at 0. Further, the “Plant response rating, Pigweed, Palmer” value in assay [2] (125 g ai/ha, 0 to 100 scale) is 10.
`CCOC(=O)N(c1cc(C2=NOC3CCCC23)c(CC)cc1C)S(=O)(=O)C(F)(F)F` (stereo not shown) [Compound 379]: the “Goosegrass plant response rating” value in assay [1] (setting [4]) is listed as 10. Moreover, the “Plant response rating, Goosegrass” value in assay [1] (125 g ai/ha, 0 to 100 scale) is 60. Also, in assay [2] (setting [4]), the “Pigweed, Palmer plant response rating” value was 0. The “Plant response rating, Pigweed, Palmer” value in assay [2] (125 g ai/ha, 0 to 100 scale) is 10.
Turning to `Cc1c(NS(=O)(=O)C(F)(F)F)cc(C2=NOC3(CCCC3)C2)c(C)c1C` [Compound 380], the “Goosegrass plant response rating” value in assay [1] (setting [4]) is 0. In addition, the “Plant response rating, Goosegrass” value in assay [1] (setting [5]) came to 30. In addition, in assay [2] (setting [4]), the “Pigweed, Palmer plant response rating” value is given as 0. Moreover, the “Plant response rating, Pigweed, Palmer” value in assay [2] (setting [5]) came out at 10.
On to `Cc1c(C2=NOC3(CCCC3)C2)cc(N(COC(=O)C(C)(C)C)S(=O)(=O)C(F)(F)F)c(C)c1C` [Compound 382], for which the “Goosegrass plant response rating” value in assay [1] (setting [4]) amounted to 0. For the same compound, the “Plant response rating, Goosegrass” value in assay [1] (setting [5]) is on record as 0. For the same compound, in assay [2] (setting [4]), the “Pigweed, Palmer plant response rating” value is given as 0. In assay [2] (setting [5]), the “Plant response rating, Pigweed, Palmer” value was 20.
As for `Cc1cc(C)c(N2CC3(CCCCC3)CC2=O)cc1NS(=O)(=O)C(F)(F)F` [Compound 392], the “Goosegrass plant response rating” value in assay [1] (setting [4]) came out at 0. The “Plant response rating, Goosegrass” value in assay [1] (setting [5]) was 0. For the same compound, the “Plant response rating, Blackgrass” value in assay [3] (setting [6]) is 10; in assay [3] (setting [7]), 40. In assay [2] (setting [4]), the “Pigweed, Palmer plant response rating” value stood at 0. For the same compound, the “Plant response rating, Pigweed, Palmer” value in assay [2] (setting [5]) was 40.
As for `Cc1cc(Cl)c(NS(=O)(=O)C(F)(F)F)cc1N1CCC2(CCCCC2)C1=O` [Compound 393], in assay [1] (setting [4]), the “Goosegrass plant response rating” value stood at 0. Moreover, the “Plant response rating, Goosegrass” value in assay [1] (setting [5]) was determined as 70. Besides, the entries for the “Plant response rating, Blackgrass” value in assay [3] (setting [6]) and in assay [3] (setting [7]) were 70 and 90, respectively. Further, the “Pigweed, Palmer plant response rating” value in assay [2] (setting [4]) is reported as 0. For the same compound, the “Plant response rating, Pigweed, Palmer” value in assay [2] (setting [5]) was determined as 80.
In the case of `Cc1cc(C)c(N(COC(=O)C(C)(C)C)S(=O)(=O)C(F)(F)F)cc1N1CCC2(CCC(F)(F)CC2)C1=O` [Compound 397], the “Plant response rating, Goosegrass” value in assay [1] (setting [5]) was 90; in assay [1] (500 g ai/ha, 0 to 100 scale) it was 90. The “Plant response rating, Blackgrass” value in assay [3] (setting [7]) is 40; in assay [3] (500 g ai/ha, 0 to 100 scale (0 no effect, 100 complete control)), 90. In addition, the “Plant response rating, Pigweed, Palmer” value came out at 80 in assay [2] (setting [5]) and 100 in assay [2] (500 g ai/ha, 0 to 100 scale).
In the case of `COC1CCC2(CC1)CCN(c1cc(NS(=O)(=O)C(F)(F)F)c(C)cc1C)C2=O` (stereo not shown) [Compound 398], the “Goosegrass plant response rating” value in assay [1] (setting [4]) came to 50. Also, the “Plant response rating, Goosegrass” value in assay [1] (setting [5]) stood at 90. For the same compound, the “Plant response rating, Blackgrass” value in assay [3] (setting [6]) was found to be 60; in assay [3] (setting [7]), 90. For the same compound, in assay [2] (setting [4]), the “Pigweed, Palmer plant response rating” value stood at 50. Further, the “Plant response rating, Pigweed, Palmer” value in assay [2] (setting [5]) is on record as 80.
As to `Cc1cc(C)c(N(S(=O)(=O)C(F)(F)F)S(=O)(=O)C(F)(F)F)cc1N1CCC2(CCC(C(F)(F)F)CC2)C1=O` (stereo not shown) [Compound 399], the “Goosegrass plant response rating” value in assay [1] (setting [4]) is on record as 40. Also, the “Plant response rating, Goosegrass” value in assay [1] (setting [5]) turned out to be 90. Further, the “Plant response rating, Blackgrass” value turned out to be 20 in assay [3] (setting [6]) and 60 in assay [3] (setting [7]). For the same compound, the “Pigweed, Palmer plant response rating” value in assay [2] (setting [4]) worked out at 30. In addition, in assay [2] (setting [5]), the “Plant response rating, Pigweed, Palmer” value amounted to 70.
`Cc1cc(C)c(N2CCC3(CCC(C(F)(F)F)CC3)C2=O)cc1NS(=O)(=O)C(F)(F)F` (stereo not shown) [Compound 400]: the “Goosegrass plant response rating” value in assay [1] (setting [4]) was determined as 10. Moreover, the “Plant response rating, Goosegrass” value in assay [1] (setting [5]) came out at 80. Further, the figures for the “Plant response rating, Blackgrass” value in assay [3] (setting [6]) and in assay [3] (setting [7]) were 20 and 80, respectively. In addition, the “Pigweed, Palmer plant response rating” value in assay [2] (setting [4]) came out at 20. In addition, the “Plant response rating, Pigweed, Palmer” value in assay [2] (setting [5]) stood at 70.
For `Cc1cc(C)c(N(COC(=O)C(C)(C)C)S(=O)(=O)C(F)(F)F)cc1N1CCC2(CCC(C)CC2)C1=O` (stereo not shown) [Compound 401], in assay [1] (setting [4]), the “Goosegrass plant response rating” value was 0. For the same compound, the “Plant response rating, Goosegrass” value in assay [1] (setting [5]) is listed as 90. The “Plant response rating, Blackgrass” value in assay [3] (setting [6]) and in assay [3] (setting [7]) was 0 throughout. Further, in assay [2] (setting [4]), the “Pigweed, Palmer plant response rating” value is reported as 0. The “Plant response rating, Pigweed, Palmer” value in assay [2] (setting [5]) came to 30.
Regarding `CCOc1cccc2c1C(=O)N(c1cc(N(COC(=O)C(C)(C)C)S(=O)(=O)Cl)c(C)cc1C)C2` [Compound 414], the “Goosegrass plant response rating” value in assay [1] (setting [4]) was determined as 0. Besides, in assay [1] (setting [5]), the “Plant response rating, Goosegrass” value is reported as 0. Further, the “Pigweed, Palmer plant response rating” value in assay [2] (setting [4]) is listed as 0. For the same compound, the “Plant response rating, Pigweed, Palmer” value in assay [2] (setting [5]) was 10.
Consider `Cc1cc(C)c(N2Cc3cccc(Br)c3C2=O)cc1NS(=O)(=O)Cl` [Compound 415], for which the “Goosegrass plant response rating” value in assay [1] (setting [4]) was determined as 70. Besides, in assay [1] (setting [5]), the “Plant response rating, Goosegrass” value is 90. The “Pigweed, Palmer plant response rating” value in assay [2] (setting [4]) is on record as 0. For the same compound, the “Plant response rating, Pigweed, Palmer” value in assay [2] (setting [5]) is 20.
